{"source": "patent US10975064B2", "about": "“RIP1 inhibitory compounds and methods for making and using the same” (Rigel Pharmaceuticals, Inc., priority 2018, dated 2021)", "test_system": "TNF-alpha induced hypothermia", "assay": "acute hypothermia mouse model", "type": "in vivo", "settings": "15 mg/kg, oral gavage, C57BL/6 mice", "experimental": "In this example, an acute hypothermia mouse model assay was used to evaluate the ability of compounds disclosed herein to inhibit TNF-alpha induced hypothermia. Female C57BL/6 mice are randomly grouped and weighed on Day-1. On the day of the study (Day 0), mice are administered vehicle or test article by oral gavage. Fifteen minutes after oral administration of test agents, each mouse is administered an intraperitoneal (IP) injection of solution containing recombinant human tumor necrosis factor alpha (TNF-a, 25.0 μg) and zVAD-FMK (200 μg). Body temperature is measured at hour zero (before IP injections) and every hour via rectal probe temperature measuring device. Three (3) hours after IP injections of TNF-a and zVAD/FMK, mice are euthanized by CO2 asphyxiation and blood is collected via cardiac puncture. Serum and plasma are harvested for determination of cytokine and compound levels, respectively. Separate groups of mice (satellite mice) are included for the determination of compound levels in plasma at the time of administration of TNFa/zVAD-FMK. (S)-5-benzyl-N-(5-methyl-4-oxo-2,3,4,5-tetrahydrobenzo[b][1,4]oxazepin-3-yl)-4H-1,2,4-triazole-3-carboxamide (WO 2014/125444), having a structure as illustrated below, was used as a comparative compound and was examined using the same assay protocol."}
{"smiles": "CN1C(=O)[C@@H](NC(=O)c2n[nH]c(Cc3ccccc3)n2)COc2ccc(N3CC4(CCOCC4)C3)cc21", "note": "[Compound I-5, (S)-5-benzyl-N-(5-methyl-4-oxo-7-(7-oxa-2-azaspiro[3.5]nonan-2-yl)-2,3,4,5-tetrahydrobenzo[b][1,4]oxazepin-3-yl)-1H-1,2,4-triazole-3-carboxamide]", "values": [{"measurement": "inhibition of TNF-alpha induced hypothermia", "result": 81, "unit": "%"}]}
